Laboratory results from patent US20090220429A1, “METHOD AND A SYSTEM FOR ASSESSING NEUROLOGICAL CONDITIONS” (METIS CURA EHF, priority 2005, published 2009).

What was measured:
[1] = system: subjects with dementia of the Alzheimer's type (AD group) and healthy control group; assay: Clinical trial: EEG recorded before and after intravenous scopolamine as probe compound, feature pair classification of AD group versus control group; assay type: in vivo, human; details: for number of feature pair classifiers scoring 80% or better: features 33-48 (ratios before/after administration), P3-P4 montage, leave one out
Text: The effectiveness of the invention has been verified in a clinical trial. The participants in the trial were divided in two groups. One group consisted of 10 elderly subjects that have been diagnosed with, mild to moderate, dementia of the Alzheimer's type (AD group). A second age-matched group of 10 healthy individuals (i.e. non-AD individuals) was included as a control group.
The AD-group of participants consisted of patients in follow-up surveillance in the memory clinic at the Department of Geriatrics in Landspitali University Hospital, Reykjavik, Iceland. The group consisted of patients with Alzheimer's Disease (AD) (N=10) according to ICD-10. The other group consisted of normal Control participants (N=10), who were recruited from relatives of demented patients attending a day-care center.
To be eligible for participation in the study the subjects had to be in the range of 60-80 years of age, in good general health as determined by standard physical examination, with no acute changes on ECG. Exclusion criteria included smoking or any other use of tobacco (also excluding those that had stopped tobacco use about a week or less prior to the trial), treatment with neuroleptics and benzodiazepines, impaired liver- or kidney function, hypersensitivity to scopolamine, indication of drug, alcohol or medical abuse, glaucoma or possibility of raised intraocular pressure with administration of scopolamine. Prior to the screening visit the subjects were interviewed by phone. The AD subjects were selected from hospital records. All the AD patients in the follow-up program at the Memory Clinic were being treated with anti-dementia drugs. To minimize the variation between the subjects in the trial, the participants in the AD-group were selected from patients that were being treated with the same cholinesterase-inhibitor, Reminyl® (galantamine HBr).
Electroencephalographic neurophysiological signals were recorded from each of the subjects. The recording protocol was divided into two parts 105, 107 or sessions which were identical. In between the sessions the provided substance 101 substance scopolamine was administered intravenously, see FIG. 10. Within each section a two-minute period was recorded while the subject was instructed to be at rest with eyes closed. The data collected from these periods were used to estimate the individual features. The substance scopolamine was chosen based on its effects perturbing biophysical pathways that are known to deteriorate in subjects suffering from Alzheimer's disease. […]
The electroencephalographic signals were recorded using computerized measuring equipment, see FIG. 11. […]
These features were evaluated using a part of the first section where the subjects were at rest with eyes closed. […]

[2] = system: early DAT subjects compared to controls; details: 1-3 min post-injection; no significant group difference at baseline; cited from earlier work

Row | Structure (SMILES) | classification performance ([1]; 3-NN scheme, FIG. 15, response feature set versus pre-administration feature set) | number of feature pair classifiers scoring 80% or better ([1]; 3-NN scheme, 4 with pre-administration features 1-16) | number of feature pair classifiers scoring 80% or better ([1]; SVM classification scheme, 5 with pre-administration features 1-16) | separation between the AD and control groups for a feature pair ([1]; ratio of feature values pre- and post-administration (FIG. 14) versus features before administration (FIG. 13)) | beta power response in the frontal region, early DAT subjects compared to controls [2]
1 | CN1[C@@H]2C[C@@H](OC(=O)[C@H](CO)c3ccccc3)C[C@H]1[C@@H]1O[C@@H]12 [scopolamine] | substantially enhanced classification performance | 29 | 23 | significantly better separation between the groups | –
2 | CCCC(C)C1(CC)C(=O)NC(=S)NC1=O (centres unmarked) [thiopental] | – | – | – | – | significantly smaller beta power response
